Assay results published in US20240050408A1, “USE OF MGLUR5 ANTAGONISTS FOR TREATING AMPHETAMINE ADDICTION” (NOVARTIS AG, priority 2020, published 2024).

How the values were obtained:
[1] = system: patients with Cocaine Use Disorder (CUD); experiment: Phase 2 trial: proportion of cocaine use days by TLFB self-report; type: in vivo, human; conditions: for difference between groups in monthly proportion of cocaine use: MMRM
Protocol: This was a Phase 2 randomized, patient- and investigator-blinded, placebo-controlled, parallel-group study.
Patients diagnosed with Cocaine Use Disorder (CUD) according to Diagnostic and Statistical Manual of Mental Disorders, 5th Ed.
This study was conducted in patients with CUD and consisted of about a 21-day screening period followed by a 7-day baseline period, a 98-day outpatient treatment period, and an end of study visit evaluation about 14 days after the last study drug administration ([…]. A). Study treatment was taken twice daily (separated by about 12-hour intervals) with food. For patients in the mavoglurant arm [mavoglurant (free form) provided as modified release formulation (e.g. in WO2014/199316)], an uptitration regimen was performed for 14 days (50 mg b.i.d. from Days 1 to 7 and 100 mg b.i.d from Days 8 to 14) and was followed by 200 mg b.i.d for 84 days.
The primary endpoint was the proportion of cocaine use days during the treatment period, assessed by timeline followback [TLFB] cocaine self-report report. The secondary endpoints included a weekly urine analysis for a log-transformed quantitative measure of cocaine metabolite benzoylecgonine (BE), safety assessments (clinical parameters, suicidal ideation, adverse events [AE] and serious adverse events [SAE] at every visit), and pre- and post-dose levels of mavoglurant in the plasma. Exploratory endpoints included Clinical Global Impression (CGI; 2 components: CGI-S [rated illness severity], CGI-I [rated change from baseline]).
For the primary endpoint, a Bayesian analysis was conducted on the proportion of cocaine use days. It was assumed to be a continuous outcome with a normal distribution. The proportion of cocaine use days over the treatment period was analyzed using an analysis of covariance (ANCOVA) model with baseline use as a covariate. The profiles of consumption over time were compared between treatment groups through analyses of longitudinal data (weekly use and monthly use) using linear mixed model for repeated measures (MMRM). The model evaluated the posterior probability that the difference in proportions of cocaine use days between mavoglurant and placebo was <0 and that it was <−10%. A difference of 10% of days was deemed the minimal clinically relevant effect and a difference of 20% would be a very promising effect based on the literature in this indication. The study was deemed to show a positive signal of efficacy if the following two proof of concept (PoC) criteria were met:
The primary endpoint was the proportion of cocaine use days by TLFB during the treatment period (Day 1 to last day of treatment). For each subject, the proportion of cocaine use days was calculated by dividing the number of days of cocaine use during the treatment period with the treatment period, i.e., 98 days for completers and number of days between Day 1 and day of last dose in case of premature discontinuation of study treatment. Cocaine consumption was recorded daily (Yes/No) using the TLFB during the entire study.
Patient Reported Outcome included: • 1. The TLFB cocaine: is a cocaine assessment method that obtains estimates of daily cocaine intake and has been evaluated with clinical and nonclinical populations. Using a calendar, people provide retrospective estimates of their daily cocaine use over a specified time period that can vary up to 12 months from the interview date. Several memory aids can be used to enhance recall (e.g., calendar; key dates serve as anchors for reporting cocaine use). […] The method is recommended for use when relatively precise estimates of cocaine use are necessary, especially when a complete use pre-posttreatment). Clinically, the TLFB can be used to provide feedback about one's cocaine consumption in an effort to increase a client's motivation to change. • 2. […]

[2] = system: patients with Cocaine Use Disorder (CUD); experiment: Phase 2 trial: hair analysis; type: in vivo, human; conditions: end of study vs baseline; compared to placebo
Protocol: Hair analysis was used as an adjunct to urine samples collection and helps document drug use history. Hair specimens were collected and at baseline and at the end of the study. Patients with hair shorter than 3 cm or bleached and/or dyed hair (proximal 4 cm) were excluded from this assessment. If only the tip of long hairs were bleached, samples were collected.
The quantitative measures were log-transformed and individual ratio between end of study and baseline was calculated and listed by treatment, subject and visit/time. The log-transformed data profiles over time were explored, compared between treatment groups and the relationship between cocaine and alcohol measures in hair, in urine and timeline follow-back was assessed.
Summary statistics were provided by treatment and visit/time. Heatmaps to visualize the trend in the log-transformed quantitative measures were created. To explore the relationship between the log-transformed quantitative measures of the compounds being assayed and the timeline follow-back cocaine and alcohol measures, scatterplots were created for the end of study results. […]
To ensure that the hair analysis quantitative parameters only had numerical values, censored values were imputed as follows • Values below the LLOQ were replaced by LLOQ/2. • Values above the ULOQ were replaced by ULOQ.

Question: How did the “cocaine use by TLFB, difference mavoglurant-placebo (result in words)” value ([1]; 98-day administration, P=0.021, listed as Mavoglurant) turn out when `COC(=O)N1CC[C@@H]2[C@H]1CCC[C@@]2(O)C#Cc1cccc(C)c1` [mavoglurant, (-)-(3aR,4S,7aR)-4-Hydroxy-4-m-tolylethynyl-octahydro-indole-1-carboxylic acid methyl ester] was run?
Answer: The value was “reduced cocaine consumption significantly”.

Question: What about the “P(θmavoglurant−θplacebo<0|data), PoC criterion 1” value ([1]; Bayesian analysis over the treatment period (14 weeks), criterion met (P>0.90)) of the same compound?
Answer: Its value is 0.999.

Question: What about the “P(θmavoglurant−θplacebo<−10%|data), PoC criterion 2” value ([1]; Bayesian analysis over the treatment period (14 weeks), criterion not met (P<0.50)) of the same compound?
Answer: Its value is 0.366.

Question: What about the “difference between groups in monthly proportion of cocaine use” value ([1]; Month 2, P=0.042) of the same compound?
Answer: Its value is 8%.

Question: And the “difference between groups in monthly proportion of cocaine use” value ([1]; Month 3, P=0.003)?
Answer: The value was 14%.

Question: And the “posterior probability in reducing cocaine use, treatments difference <0” value ([1]; cocaine TLFB, 98-day administration (50/100 mg b.i.d. uptitration, then 200 mg b.i.d. 84 days, modified release), mavoglurant vs placebo, Bayesian analysis)?
Answer: Its value is 99.0%.

Question: And the “posterior probability in reducing cocaine use, treatments difference <−10%” value ([1]; cocaine TLFB, 98-day administration, mavoglurant vs placebo, Bayesian analysis)?
Answer: The value was 36.6%.

Question: And the “difference between groups in proportion of cocaine use days” value ([1]; over the treatment period (14 weeks), mavoglurant vs placebo)?
Answer: Its value is 8.7%.

Question: What about the “observed difference between mavoglurant and placebo in proportion of cocaine use days” value ([1]; over the treatment period, FIG. 2B) of the same compound?
Answer: The value was −0.087.

Question: What about the “hair analysis: cocaine and metabolite, change from baseline” value [2] of the same compound?
Answer: The value was “higher reductions from baseline as compared to placebo”.
